One test concerns the target HLA-A*02 (Homo sapiens, UniProt P04439, D140Y/D185E/D98H/E176V/E277Q/G131W/G231S/I119V/I121R/I166T/I218V/L300P/N151K/N90K/P208A/P217A/Q86G/Q94H/R138H/R169H). As to the kind of experiment: MHC binding assay, UV-ligand exchange with beta2m ELISA, HLA-A*02. As to conditions: binding to HLA-A*02 ranged by peptide exchange yield (UV-ligand exchange, beta2m ELISA). In outline:
(§1)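 Peptide–MHC complexes made by UV-ligand exchange of a UV-cleavable peptide. Exchange yield measured by ELISA: monomers diluted 100-fold on streptavidin-coated plates, 1 h at 37°C, detected with HRP anti-β2m (2 ug/ml) and TMB, absorbance at 450 nm.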
(In general: ELISA stands for enzyme-linked immunosorbent assay.)

For another test, the system named is CD8+ T cells. As to the kind of experiment: In vitro T-cell priming assay (aAPCs loaded with peptide/MHC and anti-CD28, pMHC multimer readout; HLA-A*02 and HLA-A*24). The class given is cell-based, human. The settings on record: in vitro immunogenicity of HLA class I peptides; peptide-specific T cells by pMHC multimer staining. The source says: In order to obtain information regarding the immunogenicity of the TUMAPs of the present invention, the inventors performed investigations using an in vitro T-cell priming assay based on repeated stimulations of CD8+ T cells with artificial antigen presenting cells (aAPCs) loaded with peptide/MHC complexes and anti-CD28 antibody.
In order to perform in vitro stimulations by artificial antigen presenting cells loaded with peptide-MHC complex (pMHC) and anti-CD28 antibody, the inventors first isolated CD8+ T cells from fresh HLA-A*02 leukapheresis products via positive selection using CD8 microbeads (Miltenyi Biotec, Bergisch-Gladbach, Germany) of healthy donors obtained from the University clinics Mannheim, Germany, after informed consent.
PBMCs and isolated CD8+ lymphocytes were incubated in T-cell medium (TCM) until use consisting of RPMI-Glutamax (Invitrogen, Karlsruhe, Germany) supplemented with 10% heat inactivated human AB serum (PAN-Biotech, Aidenbach, Germany), 100 U/ml Penicillin/100 μg/ml Streptomycin (Cambrex, Cologne, Germany), 1 mM sodium pyruvate (CC Pro, Oberdorla, Germany), 20 μg/ml Gentamycin (Cambrex). 2.5 ng/ml IL-7 (PromoCell, Heidelberg, Germany) and 10 U/ml IL-2 (Novartis Pharma, Nürnberg, Germany) were also added to the TCM at this step.
Generation of pMHC/anti-CD28 coated beads, T-cell stimulations and readout was performed in a highly defined in vitro system using four different pMHC molecules per stimulation condition and 8 different pMHC molecules per readout condition.
The purified co-stimulatory mouse IgG2a anti human CD28 Ab 9.3 (Jung et al., 1987) was chemically biotinylated using Sulfo-N-hydroxysuccinimidobiotin as recommended by the manufacturer (Perbio, Bonn, Germany). Beads used were 5.6 μm diameter streptavidin coated polystyrene particles (Bangs Laboratories, Illinois, USA).
pMHC used for positive and negative control stimulations were A*0201/MLA-001 (peptide […] (SEQ ID NO. 418) from modified Melan-A/MART-1) and A*0201/DDX5-001 ([…] from DDX5, SEQ ID NO. 419), respectively.
800.000 beads/200 μl were coated in 96-well plates in the presence of 4×12.5 ng different biotin-pMHC, washed and 600 ng biotin anti-CD28 were added subsequently in a volume of 200 μl. Stimulations were initiated in 96-well plates by co-incubating 1×10^6 CD8+ T cells with 2×10^5 washed coated beads in 200 μl TCM supplemented with 5 ng/ml IL-12 (PromoCell) for 3 days at 37° C. Half of the medium was then exchanged by fresh TCM supplemented with 80 U/ml IL-2 and incubating was continued for 4 days at 37° C. This stimulation cycle was performed for a total of three times. For the pMHC multimer readout using 8 different pMHC molecules per condition, a two-dimensional combinatorial coding approach was used as previously described (Andersen et al., 2012) with minor modifications encompassing coupling to 5 different fluorochromes. Finally, multimeric analyses were performed by staining the cells with Live/dead near IR dye (Invitrogen, Karlsruhe, Germany), CD8-FITC antibody clone SK1 (BD, Heidelberg, Germany) and fluorescent pMHC multimers. For analysis, a BD LSRII SORP cytometer equipped with appropriate lasers and filters was used. Peptide specific cells were calculated as percentage of total CD8+ cells. Evaluation of multimeric analysis was done using the FlowJo software (Tree Star, Oregon, USA). In vitro priming of specific multimer+CD8+ lymphocytes was detected by comparing to negative control stimulations.
Exemplary flow cytometry results after TUMAP-specific multimer staining for 2 peptides of the invention are shown in FIGS. 3A-3B together with corresponding negative controls. Results for 5 peptides from the invention are summarized in Table12A. Exemplary flow cytometry results after TUMAP-specific multimer staining for 7 peptides of the invention are shown in FIGS. 4A-4C and FIGS. 5A-5D together with corresponding negative controls.

The subject of the next test is HLA-A*24. Put plainly: MHC binding assay, UV-ligand exchange with beta2m ELISA, HLA-A*24. The settings on record: binding to HLA-A*24 ranged by peptide exchange yield (UV-ligand exchange, beta2m ELISA). More on the design: species or system human. In outline: as §1

This is an account of results in patent publication US11541107B2, “Peptides and T cells for use in immunotherapeutic treatment of various cancers” (Immatics Biotechnologies GmbH, priority 2015, dated 2023).

For “322 (ALVSGGVAQA; listed as Homo sapiens) [compound 322]”, in the test with HLA-A*02, the Peptide exchange entry is recorded as “+++ (50%-75% = +++)”. In addition, the “Wells positive [%]” value with CD8+ T cells is given as “+ (<20% = +)”.
For “7 (AAAAKVPEV; listed as Homo sapiens) [compound 7]”, in that order: “+++ (50%-75% = +++)” and “+ (<20% = +)”.
With “2 (ALYGKLLKL; listed as Homo sapiens) [compound 2]”, the Peptide exchange result with HLA-A*02 is “+++ (50%-75% = +++)”. Moreover, the “Wells positive [%]” value with CD8+ T cells is recorded as “++++ (>=70% = ++++)”.
For “43 (LLWAGPVTA; listed as Homo sapiens) [compound 43]”, in that order: “+++ (50%-75% = +++)” and “++++ (>=70% = ++++)”.
For “17 (ILHEHHIFL; listed as Homo sapiens) [compound 17]”, in that order: “+++ (50%-75% = +++)” and “+ (<20% = +)”.
Turning to “181 (VYPPYLNYL; listed as Homo sapiens) [compound 181]”, the Peptide exchange entry in the test on HLA-A*24 is given as “+++ (50%-75% = +++)”. Further, in the test on CD8+ T cells, the “Wells positive [%]” value is “++++ (>=70% = ++++)”.
The matching figures for “167 (RYGFYYVEF; listed as Homo sapiens) [compound 167]”: “+++ (50%-75% = +++)” and “++++ (>=70% = ++++)”.
For the substance “104 (SYLTWHQQI; listed as Homo sapiens) [compound 104]”, the Peptide exchange result in the test with HLA-A*24 is reported as “++++ (>=75% = ++++)”. In addition, the “Wells positive [%]” value in the test on CD8+ T cells is reported as “+ (<20% = +)”.
For “186 (VFTTSSNIF; listed as Homo sapiens) [compound 186]”, in that order: “++++ (>=75% = ++++)” and “+ (<20% = +)”.
For “163 (RYLTISNLQF; listed as Homo sapiens) [compound 163]”, in that order: “++++ (>=75% = ++++)” and “+ (<20% = +)”.
The matching figures for “96 (YYTQYSQTI; listed as Homo sapiens) [compound 96]”: “++++ (>=75% = ++++)” and “+ (<20% = +)”.
In the case of “105 (IYNETITDLL; listed as Homo sapiens) [compound 105]”, the Peptide exchange result in the test with HLA-A*24 is recorded as “+++ (50%-75% = +++)”. Further, the “Wells positive [%]” value in the test on CD8+ T cells is “+ (<20% = +)”.
As for “166 (FYTLPFHLI; listed as Homo sapiens) [compound 166]”, the Peptide exchange entry in the test with HLA-A*24 is reported as “++++ (>=75% = ++++)”. Besides, in the test on CD8+ T cells, the “Wells positive [%]” value is on record as “++++ (>=70% = ++++)”.
The matching figures for “137 (EYLHNCSYF; listed as Homo sapiens) [compound 137]”: “++++ (>=75% = ++++)” and “+ (<20% = +)”.
The matching figures for “180 (KYLQVVGMF; listed as Homo sapiens) [compound 180]”: “+++ (50%-75% = +++)” and “+ (<20% = +)”.
The matching figures for “172 (VFIFKGNEF; listed as Homo sapiens) [compound 172]”: “++++ (>=75% = ++++)” and “+ (<20% = +)”.
With “111 (VYVQILQKL; listed as Homo sapiens) [compound 111]”, the Peptide exchange entry in the test on HLA-A*24 is recorded as “+++ (50%-75% = +++)”. In the test with CD8+ T cells, the “Wells positive [%]” value was “+ (<20% = +)”.
The matching figures for “164 (HYVPATKVF; listed as Homo sapiens) [compound 164]”: “+++ (50%-75% = +++)” and “+ (<20% = +)”.
The matching figures for “160 (RYGDGGSSF; listed as Homo sapiens) [compound 160]”: “+++ (50%-75% = +++)” and “+ (<20% = +)”.
The matching figures for “157 (DYIPASGFALF; listed as Homo sapiens) [compound 157]”: “+++ (50%-75% = +++)” and “+ (<20% = +)”.
For “9 (FLGDYVENL; listed as Homo sapiens) [compound 9]”, the Peptide exchange entry with HLA-A*02 is given as “++ (20%-49% = ++)”. For the same substance, the “Wells positive [%]” value in the test with CD8+ T cells was “+ (<20% = +)”.
